Measured values taken from BindingDB's records for doi:10.1016/j.bmcl.2006.10.091 (Bristol Myers Squibb, 2007).
pIC50: −log10 of the molar value.

Assay: Inhibition of MDC-induced chemotaxis in L1.2 cells expressing CCR4

SMILES: CCN(CC)C(C)CCCNc1nccc(NCc2ccc(Cl)cc2Cl)n1 (stereo unspecified) [N4-(2,4-dichlorobenzyl)-N2-(4-(diethylamino)pentyl)pyrimidine-2,4-diamine]
- pIC50: 5.30
